One test has as its target T1, Syk kinase (Homo sapiens, UniProt P43405).
T1 construct: purchased Carna Biosciences Inc. (Kobe) 08-176
In words: Kinase activity, mobility shift assay (MSA), Syk. In kind it is biochemical. The note with it: read-out: inhibitory activity against Syk kinase. The method, then:
(§1) A test compound was dissolved in DMSO to obtain a 10 mM test compound solution, which was stored in a dark place at −20° C. until measurement. When bioactivity (kinase activity) is measured, a test compound solution is diluted with DMSO so that the concentration becomes 100 times higher than […], and then diluted 25 times (DMSO concentration is 4%) with an assay buffer described hereinafter.
(§2) Products manufactured by Carna Biosciences Inc. (Kobe) used as protein kinases (recombinant human kinases) in the test are as follows:
(§3) SYK (product number: 08-176), JAK3 (product number: 08-046), FLT3 (product number: 08-154), PDGFRα (PDGFRA) (product number: 08-157), TRKA (NTRK1) (product number: 08-186), KDR (product number: 08-191), CDK2/cycA (product number: 04-103), and AurA (AURKA) (product number: 05-101).
(§4) Kinase activity was measured by a mobility shift assay (MSA) method using QuickScout Screening Assist™ MSA (commercially available kit, manufactured by Carna Biosciences Inc.)
(§5) 5 μl of a test compound solution (the concentration is 4 times of the final concentration) dissolved or suspended in an assay buffer [20 mM HEPES, 0.01% Triton™ X-100, 1 mM dithiothreitol, pH 7.5] or 5 μl of a solvent (4% DMSO-assay buffer) was charged in a 384 well plate made of polypropylene (product number 781280, manufactured by Greiner Bio-One Co., Ltd.). Then, 5 μl of ATP/substrate/metal solution of QuickScout Screening Assist MSA was added. Furthermore, 10 μl of a kinase solution diluted with assay buffer was added and the reaction was initiated. However, only assay buffer (10 μl) was added to blank. The concentration of kinase and reaction conditions were controlled in accordance with the protocol of QuickScout Screening Assist MSA. Then, the reaction was terminated by adding 60 μl of termination buffer of QuickScout Screening Assist MSA and the amount of a substrate (S) and a phosphorylated substrate (P) in the reaction solution were determined in accordance with the protocol of QuickScout Screening Assist MSA using LabChip3000 (manufactured by Caliper Life Sciences Co., MA, USA), and also inhibition of the test compound at a concentration of 0.01, 0.1 and 1 μM was measured, respectively. The amounts of S and P were expressed by the height of each separated peak. Inhibition (%) of the test compound was calculated in accordance with the following equation:
(§6) Inhibition (%)=(1−(C−A)/(B−A))×100
(§7) where A denotes blank, B denotes a solvent and C denotes P/(P+S) of a well of the compound.

The target of another test is T2, Flt3 kinase (Homo sapiens, UniProt P36888).
T2 construct: purchased Carna Biosciences Inc. (Kobe) 08-154
T2 sequence (P36888 27-993): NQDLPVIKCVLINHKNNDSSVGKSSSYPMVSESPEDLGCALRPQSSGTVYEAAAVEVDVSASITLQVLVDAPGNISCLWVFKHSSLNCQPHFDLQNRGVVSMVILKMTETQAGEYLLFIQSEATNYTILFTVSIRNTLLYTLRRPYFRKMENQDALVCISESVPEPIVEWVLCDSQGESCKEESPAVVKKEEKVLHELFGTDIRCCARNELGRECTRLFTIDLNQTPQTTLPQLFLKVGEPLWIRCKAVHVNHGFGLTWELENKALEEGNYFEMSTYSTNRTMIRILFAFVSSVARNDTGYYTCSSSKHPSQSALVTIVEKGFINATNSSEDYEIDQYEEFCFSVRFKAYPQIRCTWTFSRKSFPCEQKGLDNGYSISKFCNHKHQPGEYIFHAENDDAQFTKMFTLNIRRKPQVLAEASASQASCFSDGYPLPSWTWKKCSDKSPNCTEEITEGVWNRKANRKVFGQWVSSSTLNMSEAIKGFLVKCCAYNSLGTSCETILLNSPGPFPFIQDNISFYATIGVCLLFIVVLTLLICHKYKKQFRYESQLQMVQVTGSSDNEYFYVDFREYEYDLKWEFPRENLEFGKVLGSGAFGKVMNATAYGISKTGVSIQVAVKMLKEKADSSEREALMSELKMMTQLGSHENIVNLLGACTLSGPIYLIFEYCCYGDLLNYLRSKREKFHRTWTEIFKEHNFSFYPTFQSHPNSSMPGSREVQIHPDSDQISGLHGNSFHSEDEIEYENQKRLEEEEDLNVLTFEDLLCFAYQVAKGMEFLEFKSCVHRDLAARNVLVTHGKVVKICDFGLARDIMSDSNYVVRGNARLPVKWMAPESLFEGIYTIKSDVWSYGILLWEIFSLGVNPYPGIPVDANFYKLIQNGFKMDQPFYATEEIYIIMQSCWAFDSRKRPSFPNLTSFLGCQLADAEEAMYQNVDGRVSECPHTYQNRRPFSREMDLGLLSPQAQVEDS
In words: Kinase activity, mobility shift assay (MSA), Flt3. It counts as biochemical. To be noted: read-out: inhibitory activity against Flt3 kinase. How it is done: as §1, §2, §3, §4, §5, §6, §7

Test [1] concerns Rat basophilic cells RBL-2H3. In words: Action against IgE-induced degranulation (β-hexosaminidase release). It counts as cell-based. To be noted: RBL-2H3 cells, anti-DNP-IgE / DNP-BSA, read-out: inhibitory activity against IgE-induced degranulation. How it is done: An inhibitory action against SYK was evaluated by an inhibitory action against degranulation of basophils induced by IgE. Rat basophilic cells RBL-2H3 were incubated with an anti-DNP-IgE antibody (1 μg/mL, Zymed) overnight. After washing cells twice with HBSS, an antigen DNP-BSA (1 μg/mL, LSL) was added, followed by incubation for 30 minutes. The supernatant was taken and an activity of β-hexosaminidase in the solution isolated by degranulation was measured using p-nitrophenyl-N-β-D-glucosaminide as a substrate. Using an absorbance meter (Spectra MAX Pro, Molecular Devices), each absorbance at 405 nm and 570 nm of the solution was measured and an increase in the amount was taken as an enzyme activity. 10 minutes before the addition of an antigen, a test material and a solvent (0.1% DMSO) were added to cells. Inhibition rate (%) against degranulation was calculated by the following equation.
Inhibition rate (%)=(1−(A−C)/(B−C))×100
where A denotes an increase in absorbance of a test material group, B denotes an increase in absorbance of a solvent group, and C denotes an increase in absorbance of a solvent group which is not stimulated by an antigen.

Here are results for 26 compounds from US20100311965A1, “2-AMINOQUINAZOLINE DERIVATIVE” (CARNA BIOSCIENCES INC., priority 2007, published 2010).

`Cc1cccc2cnc(Nc3ccc4cn[nH]c4c3)nc12` [Example 1, N-(1H-indazol-6-yl)-8-methylquinazoline-2-amine]: the inhibition at 0.1 µM at Syk kinase was ≥ 50%.

In the case of `Cc1cccc2cnc(Nc3ccc4[nH]nnc4c3)nc12` [Example 2, N-(1H-benzo[d][1,2,3]triazol-5-yl)-8-methylquinazoline-2-amine], the inhibition at 0.1 µM on Syk kinase is ≥ 50%.

For the compound `Cc1cccc2cnc(Nc3ccc4c(c3)OCO4)nc12` [Example 6, N-(benzo[d][1,3]dioxol-5-yl)-8-methylquinazoline-2-amine], the inhibition at 0.1 µM on Flt3 kinase is ≥ 50%.

As for `Cc1cccc2cnc(Nc3ccc4c(c3)OCCO4)nc12` [Example 7, N-(2,3-dihydrobenzo[b][1,4]dioxin-6-yl)-8-methylquinazoline-2-amine], at Flt3 kinase, the inhibition at 0.1 µM was ≥ 50%.

As for `Cc1cccc2cnc(Nc3ccc4c(c3)NC(=O)CO4)nc12` [Example 8, 6-(8-methylquinazolin-2-ylamino)-2H-benzo[b][1,4]oxazin-3(4H)-one], the inhibition at 0.01 µM at Flt3 kinase was ≥ 50%.

Turning to `CC(=O)Nc1cccc(Nc2ncc3cccc(C)c3n2)c1` [Example 11, N-(3-(8-methylquinazolin-2-ylamino)phenyl)acetamide], the inhibition at 0.01 µM on Flt3 kinase is ≥ 50%.

In the case of `Cc1ccc(Nc2ncc3cccc(C)c3n2)cc1O` [Example 29, 5-(8-methylquinazolin-2-ylamino)-2-methylphenol], the inhibition at 0.1 µM at Syk kinase was ≥ 50%.

`Clc1cccc2cnc(Nc3ccc4cn[nH]c4c3)nc12` [Example 32, 8-chloro-N-(1H-indazol-6-yl)quinazoline-2-amine]: the inhibition at 0.01 µM at Flt3 kinase was ≥ 50%.

On to `Cc1n[nH]c2cc(Nc3ncc4cccc(C)c4n3)ccc12` [Example 34, 8-methyl-N-(3-methyl-1H-indazol-6-yl)-quinazoline-2-amine], for which the inhibition at 0.1 µM at Syk kinase was ≥ 50%.

For `Cc1cc(Nc2ncc3cccc(C)c3n2)cc2[nH]ncc12` [Example 37, 8-methyl-N-(4-methyl-1H-indazol-6-yl)-quinazoline-2-amine], the inhibition at 0.1 µM on Syk kinase was ≥ 50%.

Consider `Cc1c(O)ccc2cnc(Nc3ccc4cn[nH]c4c3)nc12` [Example 48, 7-hydroxy-N-(1H-indazol-6-yl)-8-methylquinazoline-2-amine], for which the inhibition at 0.1 µM on Syk kinase is ≥ 50%.

Turning to `Cc1cccc2cnc(Nc3cc(N)c4cn[nH]c4c3)nc12` [Example 52, 8-methyl-N-(4-amino-1H-indazol-6-yl)quinazoline-2-amine], the inhibition at 0.1 µM at Syk kinase was ≥ 50%.

For `Cc1c(N2CCN(C)CC2)ccc2cnc(Nc3ccc4cn[nH]c4c3)nc12` [Example 63, N-(1H-indazol-6-yl)-8-methyl-7-(4-methylpiperazin-1-yl)quinazoline-2-amine], in test [1], the inhibition at 0.05 µM is ≥ 50%.

Take `Cc1c(NCCO)ccc2cnc(Nc3ccc4cn[nH]c4c3)nc12` [Example 73, 2-[2-(1H-indazol-6-ylamino)-8-methylquinazolin-7-ylamino]ethanol]: the inhibition at 0.1 µM at Syk kinase was ≥ 50%.

For `Cc1c(N)ccc2cnc(Nc3ccc4cn[nH]c4c3)nc12` [Example 74, 7-amino-N-(1H-indazol-6-yl)-8-methylquinazoline-2-amine], the inhibition at 0.1 µM at Syk kinase was ≥ 50%.

Take `Cc1c(N2CCC(CO)CC2)ccc2cnc(Nc3ccc4cn[nH]c4c3)nc12` [Example 84, {1-[2-(1H-indazol-6-ylamino)-8-methylquinazolin-7-yl]piperidin-4-yl}methanol]: at Syk kinase, the inhibition at 0.1 µM was ≥ 50%.

As to `Cc1n[nH]c2cc(Nc3ncc4ccc(N5CCC(CO)CC5)c(C)c4n3)ccc12` [Example 94, {1-[2-(3-methyl-1H-indazol-6-ylamino)-8-methylquinazolin-7-yl]piperidin-4-yl}methanol], the inhibition at 0.1 µM at Syk kinase was ≥ 50%.

Take `COc1ccc2cnc(Nc3ccc4c(C)n[nH]c4c3)nc2c1C` [Example 96, N-(3-methyl-1H-indazol-6-yl)-7-methoxy-8-methylquinazoline-2-amine]: at Syk kinase, the inhibition at 0.1 µM is ≥ 50%.

Regarding `COc1ccc2cnc(Nc3cc(C)c4cn[nH]c4c3)nc2c1C` [Example 97, N-(4-methyl-1H-indazol-6-yl)-7-methoxy-8-methylquinazoline-2-amine], the inhibition at 0.1 µM on Syk kinase was ≥ 50%.

In the case of `Cc1cccc2cnc(Nc3cc(NC(=O)NCCO)c4cn[nH]c4c3)nc12` [Example 98, 1-(2-hydroxyethyl)-3-[6-(8-methylquinazolin-2-ylamino)-1H-indazol-4-yl]urea], at Syk kinase, the inhibition at 0.1 µM is ≥ 50%.

In the case of `Cc1c(F)ccc2cnc(Nc3cc(N)c4cn[nH]c4c3)nc12` [Example 99, 7-fluoro-N-(4-amino-1H-indazol-6-yl)-8-methylquinazoline-2-amine], the inhibition at 0.1 µM on Syk kinase was ≥ 50%.

Consider `Cc1c(N2CCC(CO)CC2)ccc2cnc(Nc3cc(N)c4cn[nH]c4c3)nc12` [Example 101, {1-[2-(4-amino-1H-indazol-6-ylamino)-8-methylquinazolin-7-yl]piperidin-4-yl}methanol], for which, at Syk kinase, the inhibition at 0.1 µM was ≥ 50%.

Regarding `COc1ccc2cnc(Nc3cc(N)c4cn[nH]c4c3)nc2c1C` [Example 102, N-(4-amino-1H-indazol-6-yl)-7-methoxy-8-methylquinazoline-2-amine], the inhibition at 0.1 µM at Syk kinase is ≥ 50%.

For `Cc1cc(Nc2ncc3ccc(NCCO)c(C)c3n2)cc2[nH]ncc12` [Example 109, 2-[2-(4-methyl-1H-indazol-6-ylamino)-8-methylquinazolin-7-ylamino]ethanol], at Syk kinase, the inhibition at 0.1 µM is ≥ 50%.

On to `Cc1c(F)ccc2cnc(Nc3cc(N)c4nc[nH]c4c3)nc12` [Example 123, 7-fluoro-8-methyl-N-(4-amino-1H-benzo[d]imidazol-6-yl)quinazoline-2-amine], for which, on Syk kinase, the inhibition at 0.1 µM is ≥ 50%.

`Cc1c(NCCO)ccc2cnc(Nc3cc(N)c4cn[nH]c4c3)nc12` [Example 124]: the inhibition at 0.1 µM at Syk kinase is ≥ 50%.
